Test results as given in ChEMBL document CHEMBL2074144, “Pharmacokinetics of erythromycin in rabbit corneas after single-dose infusion: role of P-glycoprotein as a barrier to in vivo ocular drug absorption” (J Pharmacol Exp Ther, 2004).

Biological target: ATP-dependent translocase ABCB1 (Homo sapiens, UniProt P08183)
Assay: TP_TRANSPORTER: transepithelial transport in MDR1-expressing MDCK cells
Format: functional, cell-based
Settings: dog

ATP-dependent translocase ABCB1, sequence (P08183 whole entry): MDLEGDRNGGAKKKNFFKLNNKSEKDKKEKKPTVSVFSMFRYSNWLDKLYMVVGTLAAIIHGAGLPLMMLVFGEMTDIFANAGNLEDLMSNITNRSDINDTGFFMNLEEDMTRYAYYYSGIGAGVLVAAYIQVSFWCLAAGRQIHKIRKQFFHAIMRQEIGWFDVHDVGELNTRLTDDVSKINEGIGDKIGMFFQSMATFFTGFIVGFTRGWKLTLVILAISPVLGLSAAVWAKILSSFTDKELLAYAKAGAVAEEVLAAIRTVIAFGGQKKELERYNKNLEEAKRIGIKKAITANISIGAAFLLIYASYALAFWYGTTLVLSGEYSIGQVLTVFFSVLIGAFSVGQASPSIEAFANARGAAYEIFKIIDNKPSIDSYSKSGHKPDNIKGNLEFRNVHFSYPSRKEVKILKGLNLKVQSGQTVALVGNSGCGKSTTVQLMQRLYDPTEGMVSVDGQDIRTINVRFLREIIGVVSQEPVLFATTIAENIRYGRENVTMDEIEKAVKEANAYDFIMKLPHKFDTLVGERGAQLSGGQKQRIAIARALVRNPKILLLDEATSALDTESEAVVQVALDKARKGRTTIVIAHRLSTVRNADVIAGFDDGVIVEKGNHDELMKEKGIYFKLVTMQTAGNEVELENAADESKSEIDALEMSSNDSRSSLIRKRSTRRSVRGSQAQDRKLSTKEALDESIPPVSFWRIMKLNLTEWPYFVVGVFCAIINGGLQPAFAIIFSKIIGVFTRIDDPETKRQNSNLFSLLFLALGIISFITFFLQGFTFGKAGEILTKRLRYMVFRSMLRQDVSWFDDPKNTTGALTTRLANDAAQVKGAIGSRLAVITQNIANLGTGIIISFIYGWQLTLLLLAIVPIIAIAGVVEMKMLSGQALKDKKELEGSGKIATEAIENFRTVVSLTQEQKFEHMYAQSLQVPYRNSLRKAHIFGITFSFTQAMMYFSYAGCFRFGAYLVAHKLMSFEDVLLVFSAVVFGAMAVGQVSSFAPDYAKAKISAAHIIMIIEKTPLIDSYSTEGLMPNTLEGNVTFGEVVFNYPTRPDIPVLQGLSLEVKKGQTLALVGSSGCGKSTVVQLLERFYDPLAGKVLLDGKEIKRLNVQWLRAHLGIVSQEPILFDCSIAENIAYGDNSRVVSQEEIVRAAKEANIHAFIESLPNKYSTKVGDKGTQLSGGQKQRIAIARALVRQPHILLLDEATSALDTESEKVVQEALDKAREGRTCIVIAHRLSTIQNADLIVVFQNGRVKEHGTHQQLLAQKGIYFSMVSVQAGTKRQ

## CC[C@H]1OC(=O)[C@H](C)[C@@H](O[C@H]2C[C@@](C)(OC)[C@@H](O)[C@H](C)O2)[C@H](C)[C@@H](O[C@@H]2O[C@H](C)C[C@H](N(C)C)[C@H]2O)[C@](C)(OC)C[C@@H](C)C(=O)[C@H](C)[C@@H](O)[C@]1(C)O [CLARITHROMYCIN]
  Activity: substrate [+]
